Experimental data published in ChEMBL document CHEMBL2331373, “Synthesis and antitubercular activity of amino alcohol fused spirochromone conjugates” (2013).
Converted amounts (≈) assume the structure as drawn.

The molecules below were run on Mycobacterium tuberculosis (assay: Antimycobacterial activity against Mycobacterium tuberculosis H37Rv ATCC 27294 by agar dilution method).
Format: functional
In the case of `CC(C)c1ccc(NCC(O)COc2ccc3c(c2)OC2(CCCC2)CC3=O)cc1` (stereo not drawn), the MIC is reported as 6.25 µg/mL (≈ 15.3 µM). `O=C1CC2(CCCC2)Oc2cc(OCC(O)CNc3ccc([N+](=O)[O-])cc3O)ccc21` (stereo not drawn) showed an MIC of 6.25 µg/mL (≈ 14.6 µM). `O=C1CC2(CCCCC2)Oc2cc(OCC(O)CNc3ccccc3)ccc21` (stereo not drawn) showed an MIC of 12.5 µg/mL (≈ 32.8 µM). In the case of `O=C1CC2(CCCC2)Oc2cc(OCC(O)CN3CCOCC3)ccc21` (stereo not drawn), the MIC is reported as over 25 µg/mL. With `O=C1CC2(CCCC2)Oc2cc(OCC(O)CNc3ccccc3)ccc21` (stereo not drawn) the MIC was 25 µg/mL (≈ 68 µM). Molecule `COc1ccc(NCC(O)COc2ccc3c(c2)OC2(CCCCC2)CC3=O)cc1` (stereo not drawn) has an MIC of 12.5 µg/mL (≈ 30.4 µM). `COc1ccccc1NCC(O)COc1ccc2c(c1)OC1(CCCC1)CC2=O` (stereo not drawn) was tested, and the MIC was 12.5 µg/mL (≈ 31.4 µM). For `O=C1CC2(CCCC2)Oc2cc(OCC(O)CNc3ccccc3Cl)ccc21` (stereo not drawn), the MIC was 6.25 µg/mL (≈ 15.6 µM). `COc1ccccc1NCC(O)COc1ccc2c(c1)OC1(CCCCC1)CC2=O` (stereo not drawn) was tested, and the MIC was 12.5 µg/mL (≈ 30.4 µM). `CC(C)c1ccc(NCC(O)COc2ccc3c(c2)OC2(CCCCC2)CC3=O)cc1` (stereo not drawn) showed an MIC of 6.25 µg/mL (≈ 14.8 µM). Molecule `Cc1ccccc1NCC(O)COc1ccc2c(c1)OC1(CCCCC1)CC2=O` (stereo not drawn) has an MIC of 6.25 µg/mL (≈ 15.8 µM). `Cc1ccccc1NCC(O)COc1ccc2c(c1)OC1(CCN(C(=O)OC(C)(C)C)CC1)CC2=O` (stereo not drawn) gave an MIC of 25 µg/mL (≈ 50.3 µM). For `Cc1ccccc1NCC(O)COc1ccc2c(c1)OC1(CCCC1)CC2=O` (stereo not drawn), the MIC was 12.5 µg/mL (≈ 32.8 µM). Molecule `CC(C)(C)OC(=O)N1CCC2(CC1)CC(=O)c1ccc(OCC(O)CNc3ccccc3)cc1O2` (stereo not drawn) has an MIC of over 25 µg/mL. Work on `COc1ccc(NCC(O)COc2ccc3c(c2)OC2(CCCC2)CC3=O)cc1` (stereo not drawn) yielded an MIC of 25 µg/mL (≈ 62.9 µM). `CC[C@@H](CO)NCCN[C@@H](CC)CO` [ETHAMBUTOL] gave an MIC of 1.56 µg/mL (≈ 7.64 µM). For `CC(C)c1ccccc1NCC(O)COc1ccc2c(c1)OC1(CCCC1)CC2=O` (stereo not drawn), the MIC was 6.25 µg/mL (≈ 15.3 µM). In the case of `COc1ccccc1NCC(O)COc1ccc2c(c1)OC1(CCN(C(=O)OC(C)(C)C)CC1)CC2=O` (stereo not drawn), the MIC is reported as 25 µg/mL (≈ 48.8 µM). `O=C1CC2(CCCC2)Oc2cc(OCC(O)CNc3cccc(F)c3)ccc21` (stereo not drawn) was tested, and the MIC was 3.13 µg/mL (≈ 8.12 µM). `COc1ccc(CNCC(O)COc2ccc3c(c2)OC2(CCCC2)CC3=O)cc1` (stereo not drawn) was tested, and the MIC was 12.5 µg/mL (≈ 30.4 µM). With `COc1ccc(NCC(O)COc2ccc3c(c2)OC2(CCN(C(=O)OC(C)(C)C)CC2)CC3=O)cc1` (stereo not drawn) the MIC was over 25 µg/mL. `CC(C)c1ccc(NCC(O)COc2ccc3c(c2)OC2(CCN(C(=O)OC(C)(C)C)CC2)CC3=O)cc1` (stereo not drawn) showed an MIC of 12.5 µg/mL (≈ 23.8 µM). In the case of `CO[C@H]1/C=C/O[C@@]2(C)Oc3c(C)c(O)c4c(O)c(c(/C=N/N5CCN(C)CC5)c(O)c4c3C2=O)NC(=O)/C(C)=C\C=C\[C@H](C)[C@H](O)[C@@H](C)[C@@H](O)[C@@H](C)[C@H](OC(C)=O)[C@@H]1C` [RIFAMPIN], the MIC is reported as 0.2 µg/mL (≈ 0.243 µM).
